Assay results as given in patent publication US20210113501A1, “METHOD OF ADMINISTERING BETA-HYDROXY-BETA-METHYLBUTYRATE (HMB)” (Metabolic Technologies, Inc., priority 2009, published 2021).

Assay: Study 2 hematology
Format: in vivo, human
Details: for Basophils (absolute) % Change / Basophils, % - % Change / Eosinophils (absolute) % Change / Eosinophils, % - % Change / Hematocrit % Change / Hemoglobin % Change / Lymphocytes (absolute) % Change / Lymphocytes, % - % Change / MCH % Change / MCHC % Change / MCV % Change / Monocytes (absolute) % Change / Monocytes, % - % Change / Neutrophils (absolute) % Change / Neutrophils, % - % Change / Platelets % Change / RBC % Change / RDW % Change / WBC % Change: Before to After
Experimental: Study 2 design. Study 2 was conducted similar to study 1 with the following modifications. In study 2, plasma levels of HMB were measured for 1440 min (24 h) and total urine collection was also performed for measurement of urinary HMB excretion during this period. After the 180 min blood sample, the subjects were allowed to leave the laboratory and were instructed to return to the laboratory for additional blood samples at 360, 720, and 1440 min after the ingestion of the supplement. As in study 1, each subject took each of the treatments with at least a one week washout period between treatments. Samples were again stored frozen at −70° C. for analysis of plasma and urinary HMB concentrations. Pre-ingestion, 180 min and 1440 min blood samples were again assayed for the same measurements already for study 1. Subjects were provided with a standardized lunch after the 180 min blood sampling and instructed to eat this at approximately 240 min post ingestion. Following the 720 min blood sample, subjects were instructed to eat a normal evening meal before 10 pm. Subjects reported back to the laboratory the following morning for the fasted 1440 min blood sample. A urine collection container was provided and subjects collected all urine produced during the experimental 24 h experimental period. The urine was stored refrigerated when not being collected. Urine volumes were measured and samples of the total urine collection were taken and stored frozen at −70° C. until analyzed for HMB.
The data were analyzed using a crossover design with Proc GLM in SAS. (45) For the timed sampling of plasma HMB a repeated measures polynomial model was used. The model included subject, order, and treatment main effects and time by treatment interaction where appropriate. For other parameters Proc GLM was also used with subject, order, and treatment main effects and the p values are reported for the treatment main effect. Statistical significance was determined for p<0.05 and a trend was determined for 0.05<p<0.10.

CC(C)(O)CC(=O)[O-].CC(C)(O)CC(=O)[O-].[Ca+2] [CaHMB, calcium β-hydroxy-β-methylbutryate, reference compound]
Basophils (absolute) (After (24 h)): 0.06 ± 0.02 ×10^3/μL
Basophils, % (After (24 h)): 0.8 ± 0.2%
Eosinophils (absolute) (After (24 h)): 0.2 ± 0.03 ×10^3/μL
Eosinophils, % (After (24 h)): 2.6 ± 0.4%
Hematocrit (After (24 h)): 38.3 ± 1.7%
Hemoglobin (After (24 h)): 13.3 ± 0.6 g/dL
Lymphocytes (absolute) (After (24 h)): 2.8 ± 0.3 ×10^3/μL
Lymphocytes, % (After (24 h)): 42.5 ± 3.5%
MCH (After (24 h)): 30.7 ± 0.6 pg
MCHC (After (24 h)): 34.7 ± 0.2 g/dL
MCV (After (24 h)): 88.5 ± 1.4 fL
Monocytes (absolute) (After (24 h)): 0.5 ± 0.1 ×10^3/μL
Monocytes, % (After (24 h)): 8.5 ± 1.5%
Neutrophils (absolute) (After (24 h)): 3.0 ± 0.2 ×10^3/μL
Neutrophils, % (After (24 h)): 45.6 ± 3.3%
Platelets (After (24 h)): 235.9 ± 10.9 ×10^3/μL
RBC (After (24 h)): 4.3 ± 0.2 ×10^6/µL
RDW (After (24 h)): 13.4 ± 0.1%
WBC (After (24 h)): 6.5 ± 0.3 ×10^3/μL
Basophils (absolute) (Before): 0.06 ± 0.02 ×10^3/μL
Basophils, % (Before): 0.6 ± 0.2%
Eosinophils (absolute) (Before): 0.2 ± 0.04 ×10^3/μL
Eosinophils, % (Before): 2.9 ± 0.5%
Hematocrit (Before): 38.1 ± 1.8%
Hemoglobin (Before): 13.2 ± 0.7 g/dL
Lymphocytes (absolute) (Before): 3.3 ± 0.3 ×10^3/μL
Lymphocytes, % (Before): 44.8 ± 3.2%
MCH (Before): 30.6 ± 0.5 pg
MCHC (Before): 34.7 ± 0.2 g/dL
MCV (Before): 88.4 ± 1.5 fL
Monocytes (absolute) (Before): 0.5 ± 0.1 ×10^3/μL
Monocytes, % (Before): 6.9 ± 0.9%
Neutrophils (absolute) (Before): 3.3 ± 0.3 ×10^3/μL
Neutrophils, % (Before): 44.9 ± 3.8%
Platelets (Before): 228.0 ± 17.6 ×10^3/μL
RBC (Before): 4.3 ± 0.2 ×10^6/µL
RDW (Before): 13.4 ± 0.2%
Basophils (absolute) % Change: 0.0%
Basophils, % - % Change: 20.0%
Eosinophils (absolute) % Change: −12.5%
Eosinophils, % - % Change: −8.7%
Hematocrit % Change: 0.7%
Hemoglobin % Change: 0.7%
Lymphocytes (absolute) % Change: −13.5%
Lymphocytes, % - % Change: −5.0%
MCH % Change: 0.2%
MCHC % Change: 0.0%
MCV % Change: 0.1%
Monocytes (absolute) % Change: 5.0%
Monocytes, % - % Change: 23.6%
Neutrophils (absolute) % Change: −9.9%
Neutrophils, % - % Change: 1.7%
Platelets % Change: 3.5%
RBC % Change: 0.7%
RDW % Change: −0.1%
WBC % Change: −10.5%

CC(C)(O)CC(=O)O [HMB-Acid Gel Sublingual, 3-hydroxy-3-methylbutyric acid]
Basophils (absolute) (After (24 h)): 0.04 ± 0.0 ×10^3/μL
Basophils, % (After (24 h)): 0.4 ± 0.2%
Eosinophils (absolute) (After (24 h)): 0.2 ± 0.03 ×10^3/μL
Eosinophils, % (After (24 h)): 3.3 ± 0.5%
Hematocrit (After (24 h)): 38.6 ± 1.3%
Hemoglobin (After (24 h)): 13.2 ± 0.5 g/dL
Lymphocytes (absolute) (After (24 h)): 3.1 ± 0.3 ×10^3/μL
Lymphocytes, % (After (24 h)): 45.6 ± 3.4%
MCH (After (24 h)): 30.5 ± 0.5 pg
MCHC (After (24 h)): 34.5 ± 0.2 g/dL
MCV (After (24 h)): 89.3 ± 1.4 fL
Monocytes (absolute) (After (24 h)): 0.6 ± 0.05 ×10^3/μL
Monocytes, % (After (24 h)): 8.4 ± 0.9%
Neutrophils (absolute) (After (24 h)): 2.9 ± 0.3 ×10^3/μL
Neutrophils, % (After (24 h)): 42.4 ± 3.5%
Platelets (After (24 h)): 244.3 ± 17.5 ×10^3/μL
RBC (After (24 h)): 4.3 ± 0.1 ×10^6/µL
RDW (After (24 h)): 13.4 ± 0.2%
WBC (After (24 h)): 6.8 ± 0.3 ×10^3/μL
Basophils (absolute) (Before): 0.06 ± 0.02 ×10^3/μL
Basophils, % (Before): 0.6 ± 0.2%
Eosinophils (absolute) (Before): 0.2 ± 0.04 ×10^3/μL
Eosinophils, % (Before): 2.5 ± 0.5%
Hematocrit (Before): 37.5 ± 1.4%
Hemoglobin (Before): 13.2 ± 0.5 g/dL
Lymphocytes (absolute) (Before): 3.0 ± 0.3 ×10^3/μL
Lymphocytes, % (Before): 43.1 ± 4.2%
MCH (Before): 30.4 ± 0.5 pg
MCHC (Before): 34.5 ± 0.2 g/dL
MCV (Before): 88.4 ± 1.5 fL
Monocytes (absolute) (Before): 0.6 ± 0.05 ×10^3/μL
Monocytes, % (Before): 8.3 ± 1.0%
Neutrophils (absolute) (Before): 3.3 ± 0.5 ×10^3/μL
Neutrophils, % (Before): 45.3 ± 5.2%
Platelets (Before): 233.8 ± 14.2 ×10^3/μL
RBC (Before): 4.3 ± 0.1 ×10^6/µL
RDW (Before): 13.3 ± 0.2%
WBC (Before): 7.1 ± 0.4 ×10^3/μL
Basophils (absolute) % Change: −40.0%
Basophils, % - % Change: −40.0%
Eosinophils (absolute) % Change: 35.7%
Eosinophils, % - % Change: 30.0%
Hematocrit % Change: 2.9%
Hemoglobin % Change: 0.4%
Lymphocytes (absolute) % Change: 5.0%
Lymphocytes, % - % Change: 5.8%
MCH % Change: 0.3%
MCHC % Change: 0.1%
MCV % Change: 1.0%
Monocytes (absolute) % Change: 0.0%
Monocytes, % - % Change: 1.5%
Neutrophils (absolute) % Change: −12.1%
Neutrophils, % - % Change: −6.4%
Platelets % Change: 4.5%
RBC % Change: 0.1%
RDW % Change: 0.7%
WBC % Change: −3.5%

CC(C)(O)CC(=O)O [HMB-Acid Gel Swallow, 3-hydroxy-3-methylbutyric acid]
Basophils (absolute) (After (24 h)): 0.09 ± 0.03 ×10^3/μL
Basophils, % (After (24 h)): 0.9 ± 0.3%
Eosinophils (absolute) (After (24 h)): 0.2 ± 0.04 ×10^3/μL
Eosinophils, % (After (24 h)): 3.0 ± 0.5%
Hematocrit (After (24 h)): 38.9 ± 1.1%
Hemoglobin (After (24 h)): 13.4 ± 0.4 g/dL
Lymphocytes (absolute) (After (24 h)): 3.1 ± 0.3 ×10^3/μL
Lymphocytes, % (After (24 h)): 43.3 ± 3.9%
MCH (After (24 h)): 30.5 ± 0.6 pg
MCHC (After (24 h)): 34.5 ± 0.2 g/dL
MCV (After (24 h)): 88.6 ± 1.5 fL
Monocytes (absolute) (After (24 h)): 0.5 ± 0.04 ×10^3/μL
Monocytes, % (After (24 h)): 6.9 ± 0.8%
Neutrophils (absolute) (After (24 h)): 3.3 ± 0.4 ×10^3/μL
Neutrophils, % (After (24 h)): 46.0 ± 4.4%
Platelets (After (24 h)): 242.4 ± 12.2 ×10^3/μL
RBC (After (24 h)): 4.4 ± 0.1 ×10^6/µL
RDW (After (24 h)): 13.2 ± 0.2%
WBC (After (24 h)): 7.1 ± 0.3 ×10^3/μL
Basophils (absolute) (Before): 0.05 ± 0.02 ×10^3/μL
Basophils, % (Before): 0.5 ± 0.2%
Eosinophils (absolute) (Before): 0.2 ± 0.03 ×10^3/μL
Eosinophils, % (Before): 2.8 ± 0.5%
Hematocrit (Before): 37.4 ± 1.0%
Hemoglobin (Before): 13.0 ± 0.4 g/dL
Lymphocytes (absolute) (Before): 2.8 ± 0.2 ×10^3/μL
Lymphocytes, % (Before): 43.6 ± 2.4%
MCH (Before): 30.6 ± 0.6 pg
MCHC (Before): 34.8 ± 0.2 g/dL
MCV (Before): 88.1 ± 1.5 fL
Monocytes (absolute) (Before): 0.5 ± 0.1 ×10^3/μL
Monocytes, % (Before): 7.5 ± 1.1%
Neutrophils (absolute) (Before): 2.9 ± 0.2 ×10^3/μL
Neutrophils, % (Before): 45.6 ± 2.7%
Platelets (Before): 229.0 ± 12.9 ×10^3/μL
RBC (Before): 4.2 ± 0.1 ×10^6/µL
RDW (Before): 13.3 ± 0.2%
WBC (Before): 6.4 ± 0.3 ×10^3/μL
Basophils (absolute) % Change: 75.0%
Basophils, % - % Change: 75.0%
Eosinophils (absolute) % Change: 13.3%
Eosinophils, % - % Change: 9.1%
Hematocrit % Change: 4.2%
Hemoglobin % Change: 3.2%
Lymphocytes (absolute) % Change: 9.4%
Lymphocytes, % - % Change: −0.9%
MCH % Change: −0.3%
MCHC % Change: −0.8%
MCV % Change: 0.6%
Monocytes (absolute) % Change: 2.6%
Monocytes, % - % Change: −8.3%
Neutrophils (absolute) % Change: 10.6%
Neutrophils, % - % Change: 0.8%
Platelets % Change: 5.8%
RBC % Change: 3.5%
RDW % Change: −0.5%
WBC % Change: 9.7%
